What was measured:
[1] = system: P388 lymphoplastic leukemia; assay: Combined therapy different cytostatics+GMDP-A in the P388 lymphoplastic leukemia model; type: in vivo, BDF1 mice; details: single cytostatic alone (DDP 1/2, gemzar 1/2, CP 1/4 therapeutic dose), start 24 hours after inoculation
Description: Anti-tumor efficiency of the claimed combined therapy and comparative monotherapy using only a cytostatic or only GMDP-A modifier was assessed by the criteria commonly used in experimental oncology: tumor volume (TV), tumor growth inhibition (TGI), increase of the animal life time (ILT), tumor metastasis frequency (MF), metastasis inhibition rate (MI).
Comparative study was carried out of the GMDP-A modifying effect relatively different cytostatic agents: cisplatin (DDP), gemzar and cyclophosphan (CP), in the P388 lymphoplastic leukemia model. Efficiency of combined therapy with cytostatics and GMDP-A was assessed while using DDP in amount of ½ therapeutic dose, gemzar as ½ therapeutic dose and CP in amount of ¼ therapeutic dose. Treatment was started on the early term of tumor growth (in 24 hours after inoculation); GMDP-A was injected during 21 days in a daily dose of 3.75 mg/kg. The drug was administered subcutaneously in 2 areas: in the tumor growth area (over the tumor) or in symmetry area (on the opposite side of the tumor node).
The following commercially-available drugs were used: Cyclophosphan Endoxan® trade mark, manufactured by Baxter Oncology GmbH, Germany; Cisplatin, Cisplatin Teva trade mark, manufacturer is Teva Pharmaceutical Industries Ltd., Israel (fabricated at Pharmachemie B. V., the Netherlands); Gemcitabine, Gemcitar trade mark, manufactured by CJSC Biocad, Russia.
1 mg/ml GMDP-A solution for subcutaneous injection was prepared by dissolving GMDP-A lyophilisate in water for injections.

[2] = system: P388 lymphoplastic leukemia; assay: Combined therapy DDP+GMDP-A in the P388 lymphoplastic leukemia model; type: in vivo, mice BDF1; details: single DDP 4 mg/kg i.v. alone
Description: (§1) They were transplanted on the right-side surface of the animal body.
(§2) The animals with tumors were treated in test groups at the early (24 hours after tumor inoculation) and late (5 days after tumor inoculation) terms of the tumor growth using a single cytostatic injection intravenously in a dose equal to ½ or ¼ of therapeutic one and various schedules for GMDP-A injection: • Primary subcutaneous injection of GMDP-A modifier in a single dose 3.75 mg/kg; • Repeated protracted subcutaneous administration of GMDP-A modifier according to different schedules: 4-fold, 9-fold and 20-fold, once per day, in a single dose of 3.75 mg/kg (course dose is 18.75 mg/kg, 37.5 mg/kg and 78.75 mg/kg, correspondingly). Dosage frequency depends upon the model (histological form of transplanted tumor).
(§3) To identify efficiency of the claimed combined therapy, independent medication was carried out as a control after tumor inoculation using one component of binary therapy-cytostatic drug or a modifier. Cytostatic was injected intravenously in amount of ½ or ¼ of therapeutic dose once after 24 hours or 5 days after tumor inoculation; GMDP-A modifier was administered subcutaneously in a single dose of 3.75 mg/kg 5-fold from the 1st day to the 5th day or from the 5th day to the 9th day, or 10-fold from the 1st day to the 10th day or from the 5th day to the 14th day, or 21-fold from the 1st day to the 21st day after tumor inoculation.
Efficiency of the combined therapy—chemotherapy with cisplatin cytostatic (DDP) and bioherapy with GMDP-A was assessed on P388 lymphoplastic leukemia model inoculated to mice BDF1, females, subcutaneously on the right-side body surface.
GMDP-A was administered to mice subcutaneously as a single dose of 3.75 mg/kg every day with different schedules: • Five-fold (total dose is 18.75 mg/kg) on the 1st day to the 5th day or on the 5th day to the 9th day after tumor inoculation; • Ten-fold (total dose is 37.5 mg/kg) on the 1st day to the 10th day or on the 5th day to the 14th day after tumor inoculation; • Twenty-one-fold (total dose is 78.75 mg/kg) on the 1st day to the 21st st day after tumor inoculation.
DDP (Cisplatin, Cisplatin Teva trade mark, manufacturer is Teva Pharmaceutical Industries Ltd., Israel, fabricated at Pharmachemie B.V., the Netherlands) was administered intravenously as a single dose ma 4 mg/kg (½ of therapeutic dose).

B16 melanoma = assay: Binary therapy DDP+GMDP-A in the B16 melanoma model; type: in vivo, BDF1 mice; details: single DDP 4 mg/kg i.v. alone
Description: as §1, §2, §3
Efficiency of the combined therapy—chemotherapy with DDP cytostatic and biotherapy with GMDP-A was assessed on B16 melanoma model inoculated to BDF1 mice, females, subcutaneously on the right-side body surface.
GMDP-A was administered to mice subcutaneously as a single dose of 3.75 mg/kg every day with different schedules:
Five-fold (total dose is 18.75 mg/kg) on the 1st day to the 5th day or on the 5th day to the 9th day after tumor inoculation;
Ten-fold (total dose is 37.5 mg/kg) on the 1st day to the 10th day or on the 5th day to the 14th day after tumor inoculation;
DDP (Cisplatin, Cisplatin Teva trade mark, manufacturer is Teva Pharmaceutical Industries Ltd., Israel, fabricated at Pharmachemie B.V., the Netherlands) was administered intravenously as a single dose of 4 mg/kg (½ of therapeutic dose).

[3] = system: P388 lymphoplastic leukemia; assay: GMDP-A lyophilisate versus final pharmaceutical form, alone and with DDP, in the P388 lymphoplastic leukemia model; type: in vivo, BDF1 mice; details: if given, 21-fold, single
Description: Therapeutic efficiency of GMDP-A lyophilisate and the GMDP-A final pharmaceutical form was compared in the model of P338 lymphoplastic leukemia solid version at the early treatment start (in 24 hour after subcutaneous transplantation of tumor material) as GMDP-A monotherapy (lyophilisate or the final pharmaceutical form) as well as combined administration with DDP.
As a final pharmaceutical form, “GMDP-A, 1 mg/ml solution for subcutaneous injection” sterile solutions were used. They contained GMDP-A and the following auxiliary substances and carriers in pharmaceutically-accepted amounts: sorbitol, disodium edeteate, propylene glycol, water.

[4] = during intravenous injection; cited from earlier work

Compound: O=P1(N(CCCl)CCCl)NCCCO1 (stereo not drawn) [CP, cyclophosphan]
- tumor growth inhibition (TGI) ([1]; day 7): 89%
- tumor growth inhibition (TGI) ([1]; day 12): 86%
- tumor growth inhibition (TGI) ([1]; day 14): 85%
- tumor growth inhibition (TGI) ([1]; day 19): 76%
- tumor growth inhibition (TGI) ([1]; day 21): 77%
- Average life time [1]: 31 ± 2 days
- ILT (increase of the animal life time) [1]: 30%
- Metastasis MF (tumor metastasis frequency) [1]: 100%
- Metastasis MI (metastasis inhibition rate) [1]: 89%

Compound: N.N.[Cl][Pt][Cl] [DDP, cisplatin, reference compound]
- Tumor volume ([2]; day 7, early start (1st day)): 37.9 ± 4.5 mm^3
- tumor growth inhibition (TGI) ([2]; day 7, early start (1st day)): 64%
- Tumor volume ([2]; day 7, late start (5th day)): 75.4 ± 4.8 mm^3
- tumor growth inhibition (TGI) ([2]; day 7, late start (5th day)): 28%
- Tumor volume ([2]; day 9, early start (1st day)): 67.5 ± 7.7 mm^3
- tumor growth inhibition (TGI) ([2]; day 9, early start (1st day)): 53%
- Tumor volume ([2]; day 9, late start (5th day)): 65.7 ± 6.2 mm^3
- tumor growth inhibition (TGI) ([2]; day 9, late start (5th day)): 54%
- Tumor volume ([2]; day 12, early start (1st day)): 76.7 ± 7.7 mm^3
- tumor growth inhibition (TGI) ([2]; day 12, early start (1st day)): 61%
- Tumor volume ([2]; day 12, late start (5th day)): 95.9 ± 8.4 mm^3
- tumor growth inhibition (TGI) ([2]; day 12, late start (5th day)): 51%
- Tumor volume ([2]; day 14, early start (1st day)): 155.3 ± 12 mm^3
- tumor growth inhibition (TGI) ([2]; day 14, early start (1st day)): 42%
- Tumor volume ([2]; day 14, late start (5th day)): 149.3 ± 11.6 mm^3
- tumor growth inhibition (TGI) ([2]; day 14, late start (5th day)): 44%
- Tumor volume ([2]; day 19, early start (1st day)): 374.1 ± 28.4 mm^3
- tumor growth inhibition (TGI) ([2]; day 19, early start (1st day)): 41%
- Tumor volume ([2]; day 19, late start (5th day)): 448.9 ± 33.2 mm^3
- tumor growth inhibition (TGI) ([2]; day 19, late start (5th day)): 30%
- Average life time ([2]; early start (1st day)): 23 ± 0.7 days
- ILT (increase of the animal life time) ([2]; early start (1st day)): −4%
- Metastasis MF (tumor metastasis frequency) ([2]; early start (1st day)): 100%
- Metastasis MI (metastasis inhibition rate) ([2]; early start (1st day)): 49%
- Average life time ([2]; late start (5th day)): 24 ± 0.6 days
- ILT (increase of the animal life time) ([2]; late start (5th day)): 0%
- Metastasis MF (tumor metastasis frequency) ([2]; late start (5th day)): 100%
- Metastasis MI (metastasis inhibition rate) ([2]; late start (5th day)): 50%
- Tumor volume (B16 melanoma; day 7, early start (1st day)): 3 ± 3 mm^3
- tumor growth inhibition (TGI) (B16 melanoma; day 7, early start (1st day)): 94%
- Tumor volume (B16 melanoma; day 9, early start (1st day)): 13 ± 5 mm^3
- tumor growth inhibition (TGI) (B16 melanoma; day 9, early start (1st day)): 89%
- Tumor volume (B16 melanoma; day 9, late start (5th day)): 51 ± 8 mm^3
- tumor growth inhibition (TGI) (B16 melanoma; day 9, late start (5th day)): 56%
- Tumor volume (B16 melanoma; day 12, early start (1st day)): 54 ± 18 mm^3
- tumor growth inhibition (TGI) (B16 melanoma; day 12, early start (1st day)): 80%
- Tumor volume (B16 melanoma; day 12, late start (5th day)): 163 ± 22 mm^3
- tumor growth inhibition (TGI) (B16 melanoma; day 12, late start (5th day)): 38%
- Tumor volume (B16 melanoma; day 14, early start (1st day)): 117 ± 20 mm^3
- tumor growth inhibition (TGI) (B16 melanoma; day 14, early start (1st day)): 69%
- Tumor volume (B16 melanoma; day 14, late start (5th day)): 270 ± 45 mm^3
- tumor growth inhibition (TGI) (B16 melanoma; day 14, late start (5th day)): 23%
- Tumor volume (B16 melanoma; day 16, early start (1st day)): 232 ± 36 mm^3
- tumor growth inhibition (TGI) (B16 melanoma; day 16, early start (1st day)): 58%
- Tumor volume (B16 melanoma; day 16, late start (5th day)): 424 ± 43 mm^3
- tumor growth inhibition (TGI) (B16 melanoma; day 16, late start (5th day)): 24%
- Tumor volume (B16 melanoma; day 19, early start (1st day)): 653 ± 176 mm^3
- tumor growth inhibition (TGI) (B16 melanoma; day 19, early start (1st day)): 39%
- Tumor volume (B16 melanoma; day 19, late start (5th day)): 1010 ± 173 mm^3
- tumor growth inhibition (TGI) (B16 melanoma; day 19, late start (5th day)): 5%
- Average life time (B16 melanoma; early start (1st day)): 28 ± 3 days
- ILT (increase of the animal life time) (B16 melanoma; early start (1st day)): 33%
- Metastasis MF (tumor metastasis frequency) (B16 melanoma; early start (1st day)): 20%
- Metastasis MI (metastasis inhibition rate) (B16 melanoma; early start (1st day)): 99%
- Average life time (B16 melanoma; late start (5th day)): 25 ± 3 days
- ILT (increase of the animal life time) (B16 melanoma; late start (5th day)): 19%
- Metastasis MF (tumor metastasis frequency) (B16 melanoma; late start (5th day)): 100%
- Metastasis MI (metastasis inhibition rate) (B16 melanoma; late start (5th day)): 11%
- tumor growth inhibition (TGI) ([1]; day 7): 27%
- tumor growth inhibition (TGI) ([1]; day 12): 36%
- tumor growth inhibition (TGI) ([1]; day 14): 43%
- tumor growth inhibition (TGI) ([1]; day 19): 33%
- tumor growth inhibition (TGI) ([1]; day 21): 22%
- Average life time [1]: 26 ± 1 days
- ILT (increase of the animal life time) [1]: 9%
- Metastasis MF (tumor metastasis frequency) [1]: 100%
- Metastasis MI (metastasis inhibition rate) [1]: 40%
- Tumor volume ([3]; day 8, early start (24 hour)): 29.4 ± 5.3 mm^3
- tumor growth inhibition (TGI) ([3]; day 8, early start (24 hour)): 65%
- Tumor volume ([3]; day 12, early start (24 hour)): 53.6 ± 5.4 mm^3
- tumor growth inhibition (TGI) ([3]; day 12, early start (24 hour)): 67%
- Tumor volume ([3]; day 16, early start (24 hour)): 96.3 ± 5.1 mm^3
- tumor growth inhibition (TGI) ([3]; day 16, early start (24 hour)): 73%
- Tumor volume ([3]; day 20, early start (24 hour)): 440 ± 26.7 mm^3
- tumor growth inhibition (TGI) ([3]; day 20, early start (24 hour)): 58%
- Average life time ([3]; early start (24 hour)): 30.0 ± 2.8 days
- ILT (increase of the animal life time) ([3]; early start (24 hour)): 22%
- Metastasis (upper, unnamed value in the Metastasis inhibition index column) ([3]; early start (24 hour)): 172.0 ± 14.4
- Metastasis MF (tumor metastasis frequency) ([3]; early start (24 hour)): 100%
- Metastasis inhibition index ([3]; early start (24 hour)): 32%

Compound: CC(=O)N[C@H]1[C@H](O[C@H]2[C@H](O[C@H](C)C(=O)N[C@@H](C)C(=O)N[C@H](CCC(=O)O)C(N)=O)[C@@H](NC(C)=O)C(O)O[C@@H]2CO)O[C@H](CO)[C@@H](O)[C@@H]1O (stereo partly drawn) [GMDP, N-acetyl-D-glucosaminyl-β-(1-4)-N-acetylmuramoyl-L-alanyl-D-isoglutamine]
- Pyrogenicity [4]: pyrogenic effect

Compound: Nc1ccn([C@@H]2O[C@H](CO)[C@@H](O)C2(F)F)c(=O)n1 [Gemzar, Gemcitabine]
- tumor growth inhibition (TGI) ([1]; day 7): 60%
- tumor growth inhibition (TGI) ([1]; day 12): 37%
- tumor growth inhibition (TGI) ([1]; day 14): 34%
- tumor growth inhibition (TGI) ([1]; day 19): 45%
- tumor growth inhibition (TGI) ([1]; day 21): 44%
- Average life time [1]: 29 ± 2 days
- ILT (increase of the animal life time) [1]: 21%
- Metastasis MF (tumor metastasis frequency) [1]: 100%
- Metastasis MI (metastasis inhibition rate) [1]: 69%

Reference: US20170290882A1, “Specific Combined Therapy of Malignant Tumors with a Cytostatic and Its Modifier” (priority 2015, published 2017)
